Measurements as given in US7417069B2, “Halogenated triptolide derivatives as immunomodulators and anticancer agents” (priority 2003, dated 2008).
Entries after “also recorded” stand apart in the source; their conditions may differ.

How the values were obtained:
[1] = system: Jurkat human T lymphoma cell line; experiment: Annexin V apoptosis assay; assay type: cell-based; conditions: induction of apoptosis in Jurkat cells, 24 hours, relative to triptolide (FIGS. 3A-B)
Description: Test samples were diluted to 1 mM in complete tissue culture medium (RPMI 1640 medium plus 5% heat-inactivated fetal calf serum, 1% HEPES, 1% pen/strep, 1% glutamine). Aliquots were placed in microculture plates and serial dilutions were prepared so that the final concentration would encompass the range of 2 to 6,000 nM with half-log increments. Cells from an exponentially expanding culture of the Jurkat human T lymphoma cell line (#TIB-152 obtained from American Type Culture Collection, Manassas, Va.) were harvested, washed once by centrifugation, re-suspended in complete tissue culture medium, and further diluted to a concentration of 1×10^6 cells/ml. A volume of 100 μl of the cells (1×10^5 cells) was added to wells containing 100 μl of the diluted compounds, and the plates were incubated at 37° C. in a 5% CO2 incubator.
After 24 hours, the plates were centrifuged to pellet the cells, and the cells were washed twice with 2% heat-inactivated fetal calf serum in PBS. […] The contents of the wells were individually transferred into test tubes, and apoptosis was analyzed using a FACSCalibur flow cytometer (BD Immunocytometry Systems, San Jose, Calif.). Cells positive for Annexin V binding were considered to be apoptotic, and the data were calculated as percent apoptotic cells. […]

[2] = system: IL-2 production in Jurkat cells; experiment: IL-2 production assay (immunosuppression assay); assay type: cell-based, human; conditions: for fold less potent than triptolide in the immunosuppression assay: inhibition of IL-2 production in Jurkat cells, relative to triptolide (FIGS. 4A-B)
Description: Test samples were diluted to 1 mM in complete tissue culture medium. Aliquots were placed in microculture plates that had been coated with anti-CD3 antibody (used to stimulate the production of IL-2 by Jurkat cells), and serial dilutions were prepared so that the final concentration would encompass the range of 0.001 to 10,000 nM in log increments. Cells from an exponentially expanding culture of Jurkat human T cell line (#TIB-152 obtained from American Type Culture Collection, Manassas, Va.) were harvested, washed once by centrifugation, re-suspended in complete tissue culture medium, and diluted to a concentration of 2×10^6 cells/ml. A volume of 50 μl of Jurkat cells (1×10^5 cells) was added to wells containing 100 μl of the diluted compounds, 50 μl of PMA (10 ng/ml) was added to each well, and the plates were incubated at 37° C. in a 5% CO2 incubator. After 24 hours, the plates were centrifuged to pellet the cells, 150 μl of supernatant was removed from each well, and the samples were stored at −20° C. The stored supernatants were analyzed for human IL-2 concentration using the Luminex 100 (Luminex Corporation, Austin, Tex.), Luminex microspheres coupled with anti-IL-2 capture antibody, and fluorochrome-coupled anti-IL-2 detection antibody. The data were expressed as pg/ml of IL-2.
The data were plotted as the concentration of compound versus IL-2 concentration. The results for PG763 (14-deoxy-14α-fluorotdptolide), compared with PG490 (triptolide) and a solvent control, are given in FIG. 2. Comparative data for other 14-substituted triptolides, 14α-hydroxytriptolide (also referred to as epitriptolide; designated PG524) and 14β-(methylthio)methyltriptolide (designated PG691), compared with PG490 (triptolide), are given in FIGS. 4A-B.

[3] = system: human T cell lymphoma (Jurkat) cells; experiment: Cytotoxicity (MTT) assay; assay type: cell-based; conditions: 24 h, in comparison with triptolide (FIG. 1)
Description: Test compounds were dissolved in DMSO at a concentration of 20 mM. Further dilutions were done in RPMI 1640 medium (GIBCO, Rockville, Md.) supplemented with 10% Fetal Calf Serum (HyClone Laboratories, Logan, Utah).
Cytotoxicity of the compounds was determined in a standard MTT assay using Cell Proliferation Kit I (#1 465 007, Roche Diagnostics, Mannheim, Germany). Briefly, human T cell lymphoma (Jurkat) cells (4×10^5 per well) were cultured for 24 h, in 96-well tissue culture plates, in the presence of serial three-fold dilutions of test compounds or medium containing the same concentration of DMSO as in the test samples at each dilution point. The cultures were then supplemented with 10 μl/well MTT reagent for 4h and then with 0.1 ml/well solubilizing reagent for an additional 16 h. Optical density at 570 nm (OD570) was measured on a ThermoScan™ microplate reader (Molecular Devices, Menlo Park, Calif.). The data is presented as OD570 values versus concentration of the compounds. The results for PG763 (14-deoxy-14α-fluorotriptolide), compared with PG490 (triptolide) and a medium control, are given in FIG. 1.

| SMILES | fold less potent than triptolide in the apoptosis assay [1] | fold less potent than triptolide in the immunosuppression assay [2] | cytotoxicity in Jurkat cells [3] | inhibition of IL-2 production in Jurkat cells ([2]; anti-CD3 and PMA stimulated, 24 hours, in comparison with triptolide (FIG. 2)) |
| --- | --- | --- | --- | --- |
| CC(C)[C@]12O[C@H]1[C@@H]1O[C@]13[C@]1(O[C@H]1C[C@H]1C4=C(CC[C@@]13C)C(=O)OC4)[C@H]2O [epitriptolide, 14-α-hydroxytriptolide] | ~25 fold | approximately 30 fold |  |  |
| CC(C)[C@]12O[C@H]1[C@@H]1O[C@]13[C@]1(O[C@H]1C[C@H]1C4=C(CC[C@@]13C)C(=O)OC4)[C@H]2F [PG763, 14-deoxy-14α-fluorotriptolide] |  |  | nearly equivalent to that of triptolide; also recorded: in a dose-dependent manner, at concentrations comparable to those in similar assays using triptolide | nearly equivalent to that of triptolide; also recorded: in a dose-dependent manner, at concentrations comparable to those in similar assay using triptolide |
| CSCOC1C2(C(C)C)OC2C2OC23C2(C)CCC4=C(COC4=O)C2CC2OC213 (stereo not drawn) [14β-(methylthio)methyl triptolide, 14-β-(methylthio)methyl triptolide] | ~40 fold | approximately 60 fold |  |  |
